From patent EP4640238A1, “THERAPEUTIC AGENT FOR PULMONARY DISEASE, HEPATIC DISEASE OR RENAL DISEASE, WHICH CONTAINS PGAM-CHK1 BINDING INHIBITOR” (Kyoto University, priority 2022, dated 2024)

Columns and labels:
[1] = system: fibrosis-related genes (Col1a2, Col5a2, Fibronectin, and Toropelastin); experiment: Expression of fibrosis-related mRNA in lung tissue of BLM pulmonary fibrosis model mice (real-time PCR); type: in vivo, ICR mice; settings: lung tissue 21 days after 2.5 mg/kg bleomycin; 14, 20, and 24 mg/kg intraperitoneally 4 times a week for 2 weeks; versus solvent
Procedure: 2.5 mg/kg of bleomycin was intratracheally administered to 10- to 12-week old ICR mice. Starting 8 days after bleomycin administration, 14, 20, and 24 mg/kg of nutlin 3b or the solvent alone were intraperitoneally administered 4 times a week for 2 weeks. 21 days after bleomycin administration, mice in the nutlin 3b administration group or solvent administration group were sacrificed to sample their lung tissue. In the test, 3 mice in the nutlin 3b non-administration group (solvent only) and 3 mice in the nutlin 3b administration group were used. The same applies to the following tests. The collected lung tissue was immersed in a sufficient amount of RNAlater and stored at 4°C overnight. The next day, the lung tissue was removed from the RNAlater, and the total RNA was collected using TRIzole. Then, mRNA was reverse-transcribed using a ReverTra Ace qPCR RT kit to prepare cDNA. Real-time PCR was performed on the prepared cDNA using primers specific to fibrosis-related genes (Col1a2, Col5a2, Fibronectin, and Toropelastin).

[2] = system: BLM pulmonary fibrosis model mice; experiment: Survival rate in BLM pulmonary fibrosis model mice; type: in vivo, C57BL6 mice; settings: 2.5 mg/kg bleomycin intratracheally; 20 mg/kg nutlin 3b intraperitoneally 4 times a week for 2 weeks from day 8; deaths within 21 days; versus solvent only
Procedure: 2.5 mg/kg of bleomycin was intratracheally administered to 10- to 12-week old C57BL6 mice. Starting 8 days after bleomycin administration, 20 mg/kg of nutlin 3b or the solvent alone was intraperitoneally administered 4 times a week for 2 weeks. The mice were checked for survival every day, and the number of mice that died within 21 days after bleomycin administration was counted. In this test, 6 mice in the nutlin 3b non-administration group (solvent only) and 7 mice in the nutlin 3b administration group were used. […] In the figure, 3B indicates nutlin 3b. The same applies to the following figures.

aged mice [3] = experiment: Effect on the lungs of aged mice (HE staining and p21 antibody staining); type: in vivo, C57BL/6J; settings: 20-month-old aged mice, once a week for 3 months; versus Vehicle
Procedure: Nutlin 3b was administered to C57BL/6J, 20-month-old aged mice once a week for 3 months. After 3 months, the mice were sacrificed, and HE staining and mRNA expression analysis of the lung tissue were performed. As a comparison subject, the lung tissue of young mice (C57BL/6J, 10-week old) and aged mice with no administration of nutlin 3b (Vehicle) were used.

aged mice [4] = experiment: Effect on the kidneys of aged mice (HE staining, hyalinization, marker expression); type: in vivo, C57BL/6J; settings: 20-month-old aged mice, once a week for 3 months, versus Vehicle
Procedure: Nutlin 3b was administered to C57BL/6J, 20-month-old aged mice once a week for 3 months. After 3 months, the mice were sacrificed, and HE staining and mRNA expression analysis of the renal tissue were performed. As a comparison subject, the renal tissue of young mice (C57BL/6J, 10-week old) and aged mice with no administration of nutlin 3b (Vehicle) were used.
Also, the increase in senescence markers and SASP markers induced in aged renal tissue was suppressed by nutlin 3b administration (Fig. 20-3).

[5] = system: FoxM1 and its downstream target genes (Plk1, Ccnb2, Aspm, and Cep55); experiment: Expression of FoxM1 and its downstream target genes in lung tissue of BLM pulmonary fibrosis model mice (real-time PCR); type: in vivo, ICR mice; settings: lung tissue 21 days after 2.5 mg/kg bleomycin; 20 mg/kg intraperitoneally 4 times a week for 2 weeks; versus solvent
Procedure: The influence of the nutlin 3b administration to FoxM1 target factors in bleomycin-induced pulmonary fibrosis was examined. Specifically, 2.5 mg/kg of bleomycin was intratracheally administered to 10- to 12-week old ICR mice. Starting 8 days after bleomycin administration, 20 mg/kg of nutlin 3b or the solvent alone was intraperitoneally administered 4 times a week for 2 weeks. 21 days after bleomycin administration, mice in the nutlin 3b administration group and the solvent administration group were sacrificed to sample their lung tissue. In the test, 3 mice in the nutlin 3b non-administration group (solvent only) and 3 mice in the nutlin 3b administration group were used. The collected lung tissue was immersed in a sufficient amount of RNAlater and stored at 4°C overnight. The next day, the lung tissue was removed from the RNAlater, and the total RNA was collected using TRIzole. Then, mRNA was reverse-transcribed using a ReverTra Ace qPCR RT kit to prepare cDNA. Real-time PCR was performed on the prepared cDNA using primers specific to FoxM1 and its downstream target genes (Plk1, Ccnb2, Aspm, and Cep55).

[6] = system: BLM pulmonary fibrosis model mice; experiment: Pathological comparison: Masson's trichrome staining of lung tissue, quantification of fibrosis regions; type: in vivo, ICR mice; settings: blue area quantified, 14, 20, and 24 mg/kg intraperitoneally 4 times a week for 2 weeks, day 21 after bleomycin
Procedure: 2.5 mg/kg of bleomycin was intratracheally administered to 10- to 12-week old ICR mice. Starting 8 days after bleomycin administration, 14, 20, and 24 mg/kg of nutlin 3b or the solvent alone were intraperitoneally administered 4 times a week for 2 weeks. 21 days after bleomycin administration, mice in the nutlin 3b administration group or solvent administration group were sacrificed to sample their lung tissue. The lung tissue was fixed by treatment with 4% paraformaldehyde for 48 hours. The fixed lung tissue was embedded in paraffin, and then sliced into 5 µm thin slices, and set on microscope slides. Masson's trichrome staining was performed on the thin slices of the lung tissue to evaluate fibrosis. Specifically, in Masson's trichrome staining, nuclei are stained black-brown with iron hematoxylin staining, cytoplasm is stained red with […], and collagen fibers are stained blue with aniline blue. Accordingly, to evaluate fibrosis, the stained image was separated into the three primary colors using ImageJ (image analysis software), and the area which stained blue was quantified as the fibrosis regions. The obtained signals of each group were expressed as relative values to the control group (PBS + PEG). The results of Masson's trichrome staining are shown in Fig. 17-1, and the quantification results of the fibrosis regions are shown in Fig. 17-2.

PGAM-Chk1 binding = PGAM-Chk1 binding inhibition HTP screening using a Cell-base NanoBiT system (primary screening); type: cell-based
Source text: Examples of a preferred method for measuring the binding level between PGAM and Chk1 include, in addition to the above, a method that uses PGAM and Chk1 labeled with tags that can bind to each other, and specific examples thereof include the following method that uses a Nanobit system. In Nanobit, a large subunit and a small subunit of a photoprotein prepared based on a luciferase are attached as tags to PGAM and Chk1, respectively. These tags have structures that can bind to each other. […] By measuring the intensity of the luminescence signal at this time, the binding level can be measured with high sensitivity and high quantitativity.
PGAM-Chk1 binding inhibition HTP (high-throughput) screening using a Cell-base NanoBiT system was carried out. Specifically, the screening was carried out by the following method. In NanoBiT, a large subunit and a small subunit of a photoprotein prepared based on a luciferase are attached as tags to PGAM and Chk1, respectively. These tags have structures that can bind to each other. […] By measuring the intensity of the luminescence signal at this time, the binding level can be measured with high sensitivity and high quantitativity. […] Therefore, a substance that inhibits the binding of PGAM and Chk1 was searched from the drug library, with the decrease in the luminescence signal as an indicator. […]

Row | Compound | expression of the fibrosis-related genes [1] | survival rate [2] | p21-positive cells in aged lung tissue (aged mice [3]) | increase in senescence markers and SASP markers induced in aged renal tissue (aged mice [4]) | glomerular hyalinization (four-level score) (aged mice [4]; HE staining of renal tissue) | interstitial hyalinization positive rate (aged mice [4]; HE staining of renal tissue) | expression of FoxM1 target genes [5] | fibrosis areas induced by bleomycin in the lungs [6] | luminescence signal (binding level between PGAM and Chk1) (PGAM-Chk1 binding)
1 | COc1ccc(C2=N[C@H](c3ccc(Cl)cc3)[C@H](c3ccc(Cl)cc3)N2C(=O)N2CCNC(=O)C2)c(OC(C)C)c1 [nutlin 3b, Nutlin-3b] | decreased | improved the survival rate | significantly suppressed | suppressed | significant improvement in hyalinization | significant improvement in hyalinization | suppression of the expression of FoxM1 target genes was observed | smaller than those of the control group | 
2 | nutlin |  |  |  |  |  |  |  |  | luminescence signal decreases
